Measurements taken from patent US20190136321A1, “USE OF TRANSLATIONAL PROFILING TO IDENTIFY TARGET MOLECULES FOR THERAPEUTIC TREATMENT” (The Regents of The University of California, priority 2013, published 2019).

Tests used:
[1] = system: Normal human lung fibroblasts; test: Procollagen Type 1 C-Peptide (PIP EIA) in TGF-β treated fibroblasts; type: cell-based; settings: 10 ng/ml TGF-β, 24 hours
Description: Normal human lung fibroblasts (Lonza #CC-2512) were cultured in DMEM+10% FBS supplemented with Penicillin, Streptomycin and Glutamax (Invitrogen) at 37° C. in a humidified incubator with 5% CO2. Cell passage numbers 2 through 5 were used for all experiments.
(§1) On Day 0, fibroblasts were seeded and cultured under normal conditions overnight. On Day 1, media was removed, cells were washed with PBS and then incubated for 48 hrs in serum free media (DMEM supplemented with penicillin, streptomycin, and glutamax). On Day 3, media was removed and cells were cultured for 24 hrs with fresh serum free media ±PAMi and ±10 ng/ml TGF-β. After this 24 hour incubation, about 6×10^6 cells/10 cm plate and about 1×10^6 cells/well of a 6-well plate were used for ribosomal profiling and western blot analysis, respectively.
Culture Media was collected, centrifuged to pellet cellular debris, and stored at −80° C. Procollagen Type 1 C-Peptide (PIPC) was quantified using the (PIP) EIA kit (Clontech Cat# MK101) according to manufacturer's instructions.

[2] = system: Normal human lung fibroblasts; test: Ribosomal profiling of TGF-β treated fibroblasts; type: cell-based
Description: as §1
Cells were washed with cold PBS supplemented with cycloheximide and lysed with 1× mammalian lysis buffer for 10 min on ice. Lysates were clarified by centrifugation for 10 min at 14,000 rpm and supernatants were collected. Cell lysates were processed to generate the ribosomal protected fragments and total mRNA according to the instructions included with the ARTseq Ribosome Profiling Kit. Sequencing of total RNA (RNA) and of ribosome-protected fragments of RNA (RPF) was carried out with standard Illumina rna seq methodology.
RNA-seq reads were processed with tools from the FASTX-Toolkit (fastq_quality_trimmer, fastx_clipper and fastx_trimmer). Unprocessed and processed reads were evaluated for a variety of quality measures using FastQC. Processed reads were mapped to the human genome using Tophat. Gene-by-gene assessment of the number of fragments strictly and uniquely mapping to the coding region of each gene was conducted using HTSeq-count, a component of the HTSeq package. Differential analyses of the transforming effect of TGF-β on fibroblasts and effect of PAMi treatment on this transformation were carried out with the software packages DESeq for transcription (RNA counts) and translational rate (RPF counts) and BABEL for translational efficiency based upon ribosomal occupancy as a function of RNA level (RNA and RPF counts). Genes with low counts in either RPF or RNA were excluded from differential analyses. Pathway and network analyses of differential data was conducted using Ingenuity Pathway Analysis (IPA).

PC3 cells = test: Ribosome profiling and RNA-seq of PC3 cells (translational efficiency, mRNA abundance); type: cell-based, human;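 note: mRNA is RNA-seq average read density per codon over the coding sequence, translational efficiency is ribosome footprint over RNA-seq density, scaled so the median gene equals 1.0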
Description: Given the critical role for mTOR in prostate cancer, PC3 human prostate cancer cells, in which mTOR is constitutively hyperactivated, were used to delineate translationally controlled gene expression networks upon complete or partial mTOR inhibition. Ribosome profiling was optimized to assess quantitatively ribosome occupancy genome-wide in cancer cells.
Cells were subsequently treated with cycloheximide (100 μg ml^−1) and detergent lysis was performed in the dish. The lysate was treated with DNase and clarified, and a sample was taken for RNA-seq analysis. Lysates were subjected to ribosome footprinting by nuclease treatment. Ribosome-protected fragments were purified, and deep sequencing libraries were generated from these fragments, as well as from poly(A) mRNA purified from non-nuclease-treated lysates.
Ribosome footprint and RNA-seq sequencing reads were aligned against a library of transcripts from the UCSC Known Genes database GRCh37/hg19. The first 25 nucleotides of each read were aligned using Bowtie and this initial alignment was then extended to encompass the full fragment-derived portion of the sequencing read while excluding the linker sequence. Read density profiles were then constructed for the canonical transcript of each gene, using only reads with 0 or 1 total mismatches between the read sequence and the reference sequence, comprised of the transcript fragment followed by the linker sequence. Footprint reads were assigned to an A site nucleotide at position +15 to +17 of the alignment, based on the total fragment length; mRNA reads were assigned to the first nucleotide of the alignment. The average read density per codon was then computed for the coding sequence of each transcript, excluding the first 15 and last 5 codons, which can display atypical ribosome accumulation.
Average read density was used as a measure of mRNA abundance (RNA-seq reads) and of protein synthesis (ribosome profiling reads). For most analyses, genes were filtered to require at least 256 reads in the relevant RNA-seq samples. Translational efficiency was computed as the ratio of ribosome footprint read density to RNA-seq read density, scaled to normalize the translational efficiency of the median gene to 1.0 after excluding regulated genes (log2 fold-change ±1.5 after normalizing for the all-gene median). Changes in protein synthesis, mRNA abundance and translational efficiency were similarly computed as the ratio of read densities between different samples, normalized to give the median gene a ratio of 1.0. This normalization corrects for differences in the absolute number of sequencing reads obtained for different libraries.

4EBP1, p70S6K1/2 and AKT = test: Western blot of downstream mTOR effectors in PC3 cells; type: cell-based, human; settings: 2.5 μM PP242, 3 hrs
Description: Cells were washed with PBS and lysed in 1× cell lysis buffer (Cell Signaling) for 15 min at 4° C. Lysates were sonicated briefly, clarified by centrifugation for 15 min at 14, 000 rpm, and supernatants were then collected. Protein concentration in the soluble fraction was determined by BCA protein assay (Thermo Scientific). A 4-20% Bis-Tris gradient gel (Invitrogen) was used to resolve 20 μg of protein and transferred to nitrocellulose membrane. The resulting membranes were blocked for 1 hr at room temperature with Odyssey blocking solution (LI-COR) and then incubated with primary antibodies at 4° C. overnight. The following day, the blots were washed 3 times, 10 min each in TBST, and incubated with IR-conjugated goat anti-rabbit IgG secondary antibody (IRDye 800 CW at 1:20,000; LI-COR) for 1 hour at room temperature. The blots were then washed, scanned, and specific proteins were detected using the LI-COR Odyssey infrared imager. […] Actin was used as a loading amount control.

SW620 cells = test: Western blot of phosphorylation of protein translation components in SW620 cells; type: cell-based, human; settings: PP242 10 μM
Description: SW620 cells (ATCC, passage 12) were seeded at about 75% confluence 24 hrs prior to drug treatment. […] About 6×10^6 cells/10 cm plate and about 1×10^6 cells/well of a 6-well plate were harvested for ribosome profiling and Western blot analysis, respectively, following drug treatment.
Cells were washed with PBS and lysed in 1× cell lysis buffer (Cell Signaling) for 15 min at 4° C. Lysates were sonicated briefly, clarified by centrifugation for 15 min at 14, 000 rpm, and supernatants were then collected. Protein concentration in the soluble fraction was determined by BCA protein assay (Thermo Scientific). A 4-20% Bis-Tris gradient gel (Invitrogen) was used to resolve 20 μg of protein and transferred to nitrocellulose membrane. The resulting membranes were blocked for 1 hr at room temperature with Odyssey blocking solution (LI-COR) and then incubated with primary antibodies at 4° C. overnight. The following day, the blots were washed 3 times, 10 min each in TBST, and incubated with IR-conjugated goat anti-rabbit IgG secondary antibody (IRDye 800 CW at 1:20,000; LI-COR) for 1 hour at room temperature. The blots were then washed, scanned, and specific proteins were detected using the LI-COR Odyssey infrared imager. The following antibodies from Cell Signaling were used at 1:1000 dilution: anti-phospho-eIF4E(Ser209)(#9741), anti-phospho-rpS6(Ser235/236)(#4858), anti-phospho-ERK1/2(Thr202/Tyr204)(#4370), anti-phospho-p70S6K(Thr421/Ser424)(#9204), anti-phospho-p90RSK(Thr359/Ser363)(#9344), anti-phospho-4EBP(Ser65), anti-phospho-pAKT(Ser473), anti-phospho-eIF4E(Ser209), and anti-β-actin (#4970). Actin was used as a loading amount control.

## TGF-β
[1]
  increase in procollagen production: approximately 7 fold
[2]; fibroblasts treated with TGF-β, 141 pathway genes
  genes in the pathway having an increase in translational efficiency: 118 of the 141
[2]; fibroblasts upon TGF-β treatment
  mean translational efficiency of the 141 pathway-associated genes: −1.05 log 2 relative to population mean
[2]; fibroblasts, TGF-β
  mean increase in translational efficiency, all genes in the pathway (printed: these 12 genes): 0.65 log 2
  mean increase in translational efficiency, subset of 12 genes: 1.3 log 2

## CC(C)n1nc(-c2cc3cc(O)ccc3[nH]2)c2c(N)ncnc21 [PP242]
PC3 cells; PP242 2.5 μM, 3-hour treatment
  TrlEff, ACD: −1.02
  TrlEff, C17orf28: −0.20
  TrlEff, CCNA1: 0.66
  TrlEff, DDX51: −0.51
  TrlEff, DGCR2: 0.02
  TrlEff, EEF1A1: −3.53
  TrlEff, GTPBP3: −0.83
  TrlEff, MAPK6: −0.29
  TrlEff, MAPKAPK2: 0.92
  TrlEff, NFATC21P: 0.35
  TrlEff, NR2F1: −0.09
  TrlEff, PRKD3: 0.68
  TrlEff, RBPJ: −0.03
  TrlEff, RPL28: −3.48
  TrlEff, RPL39: −2.53
  TrlEff, RPS20: −2.78
  TrlEff, RPS27: −3.35
  TrlEff, SDCCAG10: 0.23
  TrlEff, UBTD2: 0.27
  TrlEff, UCHL5: 0.40
  TrlEff, VHL: 0.52
  mRNA, ACD: 0.20
  mRNA, ARID5B: 1.93 log^2 fold change
  mRNA, BCL6: 1.59 log^2 fold change
  mRNA, BRIX1: −1.51 log^2 fold change
  mRNA, C17orf28: 0.21
  mRNA, CCNA1: −0.33
  mRNA, CTGF: 1.80 log^2 fold change
  mRNA, CYR61: 1.47 log^2 fold change
  mRNA, DDX51: 0.17
  mRNA, DGCR2: 0.05
  mRNA, EEF1A1: 0.29
  mRNA, FGFBP1: −1.75 log^2 fold change
  mRNA, FOXA1: 1.45 log^2 fold change
  mRNA, GDF15: 3.02 log^2 fold change
  mRNA, GTPBP3: 0.15
  mRNA, HBP1: 1.88 log^2 fold change
  mRNA, KLF6: 1.75 log^2 fold change
  mRNA, MAPK6: 0.10
  mRNA, MAPKAPK2: −0.22
  mRNA, MT2A: 1.47 log^2 fold change
  mRNA, NFATC21P: 0.08
  mRNA, NR2F1: 0.87
  mRNA, PLAU: 2.04 log^2 fold change
  mRNA, PRKD3: −0.46
  mRNA, RBPJ: 0.17
  mRNA, RND3: 1.78 log^2 fold change
  mRNA, RPL28: 0.55
  mRNA, RPL39: −0.42
  mRNA, RPS20: −0.10
  mRNA, RPS27: 0.06
  mRNA, SDCCAG10: −0.37
  mRNA, SOX4: 1.51 log^2 fold change
  mRNA, UBTD2: 0.25
  mRNA, UCHL5: −0.51
  mRNA, VHL: 0.43
PC3 cells; gene ACTG1
  TrlEff: −1.40
  mRNA: 0.28
PC3 cells; gene AGRN
  mRNA: 0.50
PC3 cells; gene ALKBH7
  mRNA: 0.51
PC3 cells; gene AP2A1
  mRNA: 0.42
PC3 cells; gene ARD1A
  mRNA: 0.03
PC3 cells; gene ATP5G2
  mRNA: 0.17
PC3 cells; gene C21orf66
  mRNA: −0.31
PC3 cells; gene CCNI
  mRNA: 0.24
PC3 cells; gene CD44
  mRNA: 0.43
PC3 cells; gene CIRBP
  mRNA: 0.54
PC3 cells; gene CLPTM1
  mRNA: 0.41
PC3 cells; gene COL6A2
  mRNA: 0.57
PC3 cells; gene CRTAP
  TrlEff: −2.50
  mRNA: 0.33
PC3 cells; gene ECSIT
  mRNA: 0.26
PC3 cells; gene EEF1A2
  mRNA: 0.40
PC3 cells; gene EEF1B2
  TrlEff: −1.70
PC3 cells; gene EEF1D
  mRNA: 0.35
PC3 cells; gene EEF1G
  mRNA: 0.15
PC3 cells; gene EEF2
  TrlEff: −3.60
PC3 cells; gene EIF3H
  mRNA: 0.09
PC3 cells; gene EIF3L
  mRNA: 0.21
PC3 cells; gene EIF4B
  mRNA: 0.61
PC3 cells; gene EVPL
  TrlEff: −0.79
  mRNA: 0.38
PC3 cells; gene FAM83H
  mRNA: 0.33
PC3 cells; gene FAM128B
  mRNA: 0.43
PC3 cells; gene FASN
  mRNA: 0.30
PC3 cells; gene GAPDH
  TrlEff: −1.90
PC3 cells; gene GLTSCR2
  mRNA: 0.70
PC3 cells; gene GNB2L1
  mRNA: 0.27
PC3 cells; gene HNRNPA1
  mRNA: 0.27
PC3 cells; gene HSPA8
  mRNA: −0.40
PC3 cells; gene IMPDH2
  mRNA: 0.21
PC3 cells; gene LAMA5
  TrlEff: −0.94
  mRNA: 0.40
PC3 cells; gene LMF2
  mRNA: 0.62
PC3 cells; gene MTA1
  mRNA: 0.21
PC3 cells; gene NCLN
  TrlEff: −0.76
  mRNA: 0.29
PC3 cells; gene PABPC1
  mRNA: 0.16
PC3 cells; gene PABPC4
  mRNA: 0.40
PC3 cells; gene PACS1
  mRNA: 0.45
PC3 cells; gene PFDN5
  mRNA: 0.04
PC3 cells; gene PGLS
  mRNA: 0.21
PC3 cells; gene PGM1
  mRNA: 0.23
PC3 cells; gene PNKP
  TrlEff: −0.79
  mRNA: 0.33
PC3 cells; gene PTGES2
  TrlEff: −0.65
  mRNA: 0.17
PC3 cells; gene RABGGTB
  mRNA: 0.20
PC3 cells; gene RPL3
  mRNA: 0.22
PC3 cells; gene RPL4
  TrlEff: −1.50
  mRNA: 0.10
PC3 cells; gene RPL7
  mRNA: 0.01
PC3 cells; gene RPL7A
  TrlEff: −2.30
  mRNA: 0.15
PC3 cells; gene RPL9
  mRNA: −0.08
PC3 cells; gene RPL10
  mRNA: 0.25
PC3 cells; gene RPL10A
  mRNA: 0.14
PC3 cells; gene RPL11
  mRNA: 0.14
PC3 cells; gene RPL12
  mRNA: 0.12
PC3 cells; gene RPL13
  mRNA: 0.26
PC3 cells; gene RPL13A
  TrlEff: −3.10
  mRNA: 0.30
PC3 cells; gene RPL15
  TrlEff: −1.20
  mRNA: 0.19
PC3 cells; gene RPL17
  TrlEff: −1.80
PC3 cells; gene RPL18A
  mRNA: 0.23
PC3 cells; gene RPL19
  mRNA: 0.11
PC3 cells; gene RPL21
  mRNA: −0.04
PC3 cells; gene RPL22
  mRNA: 0.00
PC3 cells; gene RPL22L1
  TrlEff: −1.90
PC3 cells; gene RPL24
  mRNA: 0.00
PC3 cells; gene RPL26
  TrlEff: −2.00
  mRNA: 0.02
PC3 cells; gene RPL27
  mRNA: −0.13
PC3 cells; gene RPL27A
  mRNA: 0.07
PC3 cells; gene RPL28
  mRNA: 0.22
PC3 cells; gene RPL31
  TrlEff: −2.10
  mRNA: 0.05
PC3 cells; gene RPL32
  mRNA: 0.11
PC3 cells; gene RPL34
  mRNA: 0.04
PC3 cells; gene RPL36A
  mRNA: −0.01
PC3 cells; gene RPL37A
  mRNA: 0.01
PC3 cells; gene RPL39
  mRNA: −0.15
PC3 cells; gene RPL41
  mRNA: −0.01
PC3 cells; gene RPLP0
  mRNA: 0.12
PC3 cells; gene RPLP1
  mRNA: 0.12
PC3 cells; gene RPLP2
  TrlEff: −2.10
  mRNA: 0.14
PC3 cells; gene RPS2
  mRNA: 0.20
PC3 cells; gene RPS3
  mRNA: 0.24
PC3 cells; gene RPS3A
  mRNA: −0.06
PC3 cells; gene RPS4X
  mRNA: 0.12
PC3 cells; gene RPS5
  mRNA: 0.23
PC3 cells; gene RPS6
  mRNA: −0.02
PC3 cells; gene RPS7
  TrlEff: -1151
  mRNA: −0.04
PC3 cells; gene RPS9
  mRNA: 0.34
PC3 cells; gene RPS12
  TrlEff: −3.00
  mRNA: 0.04
PC3 cells; gene RPS13
  mRNA: −0.08
PC3 cells; gene RPS14
  TrlEff: −1.50
  mRNA: 0.16
PC3 cells; gene RPS15
  mRNA: 0.21
PC3 cells; gene RPS15A
  mRNA: 0.07
PC3 cells; gene RPS19
  mRNA: 0.23
PC3 cells; gene RPS20
  mRNA: −0.01
PC3 cells; gene RPS21
  mRNA: 0.09
PC3 cells; gene RPS25
  mRNA: −0.04
PC3 cells; gene RPS27
  mRNA: 0.07
PC3 cells; gene RPS27A
  mRNA: −0.04
PC3 cells; gene RPS28
  mRNA: 0.28
PC3 cells; gene RPS29
  mRNA: 0.11
PC3 cells; gene SLC19A1
  mRNA: 0.10
PC3 cells; gene SLC25A5
  TrlEff: −1.80
PC3 cells; gene TKT
  mRNA: 0.33
PC3 cells; gene TSC2
  mRNA: 0.21
PC3 cells; gene UBA52
  mRNA: 0.18
PC3 cells; gene VIM
  mRNA: 0.67
PC3 cells; gene YB1
  TrlEff: −2.30
  mRNA: 0.24
4EBP1, p70S6K1/2 and AKT
  phosphorylation of S6K, S6 and 4EBP1: substantially inhibited
SW620 cells
  phosphorylation of 4EBP: some phosphorylation of 4EBP was observed
